Measured values: publication PMC9504648 (Marine Drugs, 2022)

Assays:
[1] = molecular target: T1, NMDA receptor (NMDAR; GluN2B-containing) (Mus musculus, UniProt P35438+Q01097); assay: Fluo-3 Ca2+ influx in primary neurons; […] inhibits NMDA response ([…] AUC); IC50 is against PbTx-2-induced influx; format: cell-based
T1 construct: gene Grin2b; native receptor in DIV 10–12 cerebrocortical neurons; with GluN1

[2] = molecular target: T1, NMDA receptor (NMDAR; GluN2B-containing); assay: Fluo-3 NMDA-induced Ca2+ influx in primary neurons, single concentration ([…], […] reduction in AUC); format: cell-based

T1 sequence (Q01097 27-1482, other chains not shown): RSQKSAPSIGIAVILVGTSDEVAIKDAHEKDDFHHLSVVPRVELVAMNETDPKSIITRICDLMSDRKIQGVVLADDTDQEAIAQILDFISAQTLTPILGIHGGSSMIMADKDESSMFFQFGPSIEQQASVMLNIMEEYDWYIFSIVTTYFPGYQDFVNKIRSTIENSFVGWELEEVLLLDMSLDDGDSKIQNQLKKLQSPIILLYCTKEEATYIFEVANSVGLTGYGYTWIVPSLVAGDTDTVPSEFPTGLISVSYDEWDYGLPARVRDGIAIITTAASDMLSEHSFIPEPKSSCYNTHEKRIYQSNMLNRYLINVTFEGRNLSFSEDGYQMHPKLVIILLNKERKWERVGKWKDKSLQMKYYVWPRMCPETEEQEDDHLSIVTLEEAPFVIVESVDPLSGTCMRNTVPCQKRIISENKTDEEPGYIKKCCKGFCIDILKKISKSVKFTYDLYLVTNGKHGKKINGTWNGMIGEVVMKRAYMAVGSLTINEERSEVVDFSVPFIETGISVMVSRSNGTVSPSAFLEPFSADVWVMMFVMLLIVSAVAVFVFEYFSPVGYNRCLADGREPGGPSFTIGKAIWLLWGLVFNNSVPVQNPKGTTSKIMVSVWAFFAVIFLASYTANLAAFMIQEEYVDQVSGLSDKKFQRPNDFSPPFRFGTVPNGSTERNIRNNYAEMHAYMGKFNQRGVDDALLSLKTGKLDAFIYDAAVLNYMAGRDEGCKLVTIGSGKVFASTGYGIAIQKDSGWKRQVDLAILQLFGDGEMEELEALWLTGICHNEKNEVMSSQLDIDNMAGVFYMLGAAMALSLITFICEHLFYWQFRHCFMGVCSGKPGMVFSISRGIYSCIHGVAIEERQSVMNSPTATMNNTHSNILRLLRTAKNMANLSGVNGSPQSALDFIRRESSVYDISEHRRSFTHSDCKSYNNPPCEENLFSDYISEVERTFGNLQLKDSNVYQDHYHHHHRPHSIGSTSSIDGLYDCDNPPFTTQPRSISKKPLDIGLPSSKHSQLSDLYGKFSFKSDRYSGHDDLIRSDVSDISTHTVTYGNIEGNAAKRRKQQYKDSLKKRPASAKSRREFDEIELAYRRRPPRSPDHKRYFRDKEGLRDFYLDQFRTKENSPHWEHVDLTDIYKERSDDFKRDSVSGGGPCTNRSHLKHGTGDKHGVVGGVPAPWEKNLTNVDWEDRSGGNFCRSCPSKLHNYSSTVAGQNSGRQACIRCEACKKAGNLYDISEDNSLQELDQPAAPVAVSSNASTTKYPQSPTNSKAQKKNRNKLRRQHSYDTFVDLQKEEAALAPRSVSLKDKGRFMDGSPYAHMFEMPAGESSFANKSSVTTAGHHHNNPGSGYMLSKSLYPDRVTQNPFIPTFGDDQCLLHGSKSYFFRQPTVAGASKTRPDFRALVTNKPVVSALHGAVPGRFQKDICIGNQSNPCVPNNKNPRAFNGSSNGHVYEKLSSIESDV

| Structure (SMILES) | IC50 [1] | inhibition at 1 µM [2] |
| --- | --- | --- |
| CC(C(O)c1ccc(O)cc1)N1CCC(Cc2ccccc2)CC1 (centres unmarked) [ifenprodil] | 2200 nM |  |
| C[C@]12N[C@H](Cc3ccccc31)c1ccccc12 [MK-801] |  | 75% |
